Values quoted from earlier work in patent US20050137262A1, “Highly concentrated pourable aqueous solutions of potassium ibuprofen, their preparation and their uses” (priority 2003, published 2005).

In the case of `CC(C)Cc1ccc(C(C)C(=O)[O-])cc1.[K+]` (centres unmarked) [potassium ibuprofen, potassium 2-(4-isobutylphenyl)propionate], the “concentration of dissolved potassium ibuprofen” value (U.S. Pat No. 5,912,011 Table 1, system with 35.2 wt % ibuprofen, 33.3 wt % PEG 600, 7.3 wt % water) is given as 24.2 wt % and the “maximum concentration of dissolved potassium ibuprofen shown” value (U.S. Pat. No. 6,387,400, polyethylene glycol solvent, less than about 50 mole % of ibuprofen converted to potassium salt) is given as “about 24.2 wt %”.
